# According to patent US12578350B2, “System and method for coagulation and platelet function related data collection and analysis” (FloBio LLC, priority 2024, dated 2026):
# Tested on: fibrin accumulation
# Assay: Microfluidic whole blood flow assay over collagen/tissue factor reaction zone, fibrin signal, drug spiked in vitro
# Format: cell-based, human
# Settings: blood sample treated with different doses, in relation to HBS control; 37° C. and 21° C.; FIGS. 17C-17D
# Text: The drug in question can be mixed with a small bolus of patient blood outside the device (in vitro), and the drug spiked blood then analyzed on the system. […] Fresh whole blood (used within minutes of venous draw), AF594 fibrinogen (fibrinogen from human plasma, Alexa FluorTM 594 conjugate) and platelet MCA2588A488 (mouse anti-human CD61, Alexa FluorTM 488 conjugate) can be added to the device 100 and the direct fluorescence signals can be analyzed. […] The result is the production of direct fluorescent signals in green (platelets) and red (fibrin) where the measured fluorescent intensity (FI) directly correlates with the accumulation of platelets and fibrin. The fluorescent signal intensity can be directly measured at each clot site over time to produce clot response curves for both fibrin and platelets. Fluorescence signal (intensity) can be extracted for each clot and plotted for each assay condition. Two signals are generated in the test as fluorescence intensity (FI) for fibrin and platelets accumulating in the region of interest on the device. […] The optimal time at which to select data for analyses is generally determined to be the time of the maximum rate of stable signal development, which typically corresponds to the half-max or T50 time point of the assay.
smiles,measurement,value
O=C(NC[C@H]1CN(c2ccc(N3CCOCC3=O)cc2)C(=O)O1)c1ccc(Cl)s1 [Rivaroxaban],fibrin signal with increasing dose,decreases
